{"source": "patent US9532990B2", "about": "(Zhejiang DTRM Biopharma Co. Ltd., priority 2014, dated 2017)", "experiment": "Toxicity and toxicokinetic studies, 28-day rat and dog", "conditions": "28-day rat and dog studies", "description": "Toxicity and toxicokinetic (TK) studies of the compounds can be performed by well known methods.", "data": [{"smiles": "C=CC(=O)N1CC[C@@H](n2nc(-c3ccc(Oc4c(F)c(F)cc(F)c4F)cc3F)c3c(N)ncnc32)C1", "note": "[Compound 45, 1-((R)-3-(4-amino-3-(2-fluoro-4-(2,3,5,6-tetrafluorophenoxy)phenyl)-1H-pyrazolo[3,4-d]pyrimidin-1-yl)pyrrolidin-1-yl)prop-2-en-1-one]", "values": [{"measurement": "drug exposure, Day 1 versus Day 28", "value": "no significant difference in drug exposure between Day 1 and Day 28"}, {"measurement": "drug exposure, male versus female", "value": "no significant difference in drug exposure between male and female"}]}]}
